Test results taken from patent US8709391B2, “Family of pain producing substances and methods to produce novel analgesic drugs” (Board of Regents of the University of Texas System, priority 2008, dated 2014).

What was measured:
[1] = tested on: rat trigeminal sensory neurons; assay: linoleic acid activation of rat trigeminal sensory neurons, intracellular calcium (Fura-2); format: cell-based; settings: pretreatment; for inhibition of the formation of linoleic acid metabolites (neuron-activating compounds): concluded from the neuron activation test
Source text: FIG. 14 depicts the effects of pretreatment with either cytochrome P450 inhibitors (NDGA, DPI, CO or ketoconazole, ODYA), nitric oxide synthase inhibitors (L-NAME, L-NNA), lipoxygenase inhibitors (BW-70C, PD, TEDC) or antioxidants (TROLOX, NAC, TEMPOL) versus negative controls (vehicle, argon) on the ability of linoleic acid to activate rat trigeminal sensory neurons as measured by real time levels of intracellular calcium (Fura-2, as indicated by the ratio of 340/380).

TG neurons from WT mice = assay: [Ca2+]i levels in cultured TG neurons from WT mice; format: cell-based, mouse; settings: for [Ca2+]i response evoked in TG neurons / responding neurons / capsaicin-sensitive neurons: 100 μM
Experimental: (§1) FIGS. 1A-H depict that endogenous TRPV1 ligands are generated upon heat insult of mouse skin. The hypothesis of heat-evoked generation of endogenous TRPV1 ligand(s) was evaluated by harvesting mouse skin and then collecting superfusate samples after 20 min exposure to basal (37° C.=“control” skin) or noxious (48° C.=“heated” skin) temperatures. Aliquots of the two superfusates were applied, at room temperature, to cultured trigeminal ganglia (TG) neurons from wild type (WT) or TRPV1 knock out (TRPV1 KO) mice for measurement of evoked increases in intracellular calcium levels [Ca^2+]i. […] Conversely, there were no changes in [Ca^2+]i after application of supernatants from heated skin to either TRPV1 KO cultures (FIG. 1B; mustard oil served as a positive control) or to WT neurons insensitive to capsaicin (data not shown).
(§2) The pharmacological activity of synthetic 9-HODE and related compounds on sensory neurons was characterized. […] Another major metabolic pathway of linoleic acid leads to formation of 13-HODE and its metabolite, 13-oxoODE. The relative efficacy of these four compounds for evoked [Ca^2+]i levels was evident when tested in cultured neurons from WT mice (FIG. 3G) and in TRPV1-expressing CHO cells (FIG. 3H).
(§3) The epoxy metabolite, 9,10 EpOME (also known as leukotoxin), is highly elevated in burn patients and is implicated in shock in these patients.
(§4) FIG. 12 depicts the effect of lipids extracted from burned human skin samples against cultured trigeminal sensory neurons from control (wild type, “WT”) mice and from TRPV1 knock-out mice. Samples of burned human skin and control (non-burned) human skin from patients undergoing treatment in a hospital burn ward were obtained. The lipids from the skin samples were extracted by incubation with acetonitrile and the samples dried under nitrogen gas. The samples were tested against cultured trigeminal sensory neurons from control (wild type, “WT”) mice and from TRPV1 knock-out mice using real time imaging of calcium accumulation (fura-2 method). Extracts from human control (non burned) skin had no effect on activating neurons from either control (WT) or TRPV1 knockout (TRPV1 KO) mice. […] Thus, similar to the oxidized linoleic acid metabolites, the extracts from burned human skin activate TRPV1 and some other channels.

rats [2] = assay: intrathecal application, tactile allodynia in rats; format: in vivo, rat
Source text: FIGS. 9A-D depict that spinal injection (intrathecal) of capsaicin or 9-HODE into the spinal cord space results in tactile allodynia. This effect is mediated by activation of TRPV1 since it is blocked by a TRPV1 antagonist (AMG 9810). […] The results were compared with the results obtained with the positive control capsaicin. […] Comparison of the peak effect evoked by both capsaicin and 9-HODE is shown in FIGS. 9C-D. The effects were remarkably similar.

[3] = tested on: TG neurons from TRPV1 KO mice; assay: [Ca2+]i levels in cultured TG neurons from TRPV1 KO mice; format: cell-based, mouse
Experimental: as §1, §2, §3, §4

WT mice = assay: hindpaw intraplantar (ipl) injection, thermal allodynia, WT mice; format: in vivo, mouse
cultured rat TG neurons = assay: CGRP release from cultured rat TG neurons evoked by 9-HODE; format: cell-based
TRPV1 KO mice = assay: hindpaw intraplantar (ipl) injection, thermal allodynia, TRPV1 KO mice; format: in vivo, mouse
rat TG neurons [4] = assay: heat-evoked (48° C.) iCGRP release from rat TG neurons; format: cell-based; settings: NDGA 10 uM, indomethacin 2 uM, I-RTX 200 nM
rat TG neurons [5] = assay: patch clamp electrophysiology, heat (48° C.)-evoked inward current (Iheat) in rat TG neurons; format: cell-based; settings: pretreatment, NDGA 30 uM, miconazole 100 uM
Experimental: FIGS. 5A-D depict that interventions reducing production or action of linoleic acid oxidation products results in decreased thermal pain. Whether heat-evoked activation of rat TG neurons is inhibited by interventions directed against linoleic acid metabolites was evaluated. […] Using patch clamp electrophysiology, the local application of a heat step (48° C.) produced a strong inward current (Iheat) in TG neurons. Pretreatment with NDGA produced ˜50% reduction (p<0.05) in Iheat. (FIG. 5B). In a similar patch clamp electrophysiology set up, pretreatment with miconazole (100 uM) produced more than 75% reduction (p<0.001) in Iheat (FIG. 5C). Whether intracellular immunoneutralization against 9-HODE and 13-HODE alters the responsiveness of sensory neurons to noxious heat was evaluated next. A solution containing both anti-9-HODE and anti-13-HODE antibodies (concentrations of 0.03-0.06 ug and 0.006-0.012 ug/patch pipette respectively) was delivered intracellularly via dialysis for 5 min prior to the application of a heat step (48° C.).

rats [6] = assay: thermal nociception in rats after intraplantar hindpaw (ipl) injection; format: in vivo, rat; settings: 100 ug/paw ipl, 15 minute, ipsilateral hindpaw
Experimental: The intraplantar hindpaw (ipl) injection of NDGA, miconazole, and a combination of anti 9-HODE and anti-13-HODE was compared to morphine sulfate, a gold standard analgesic. […] The studies were performed in a separate groups of animals for each condition and by observers blinded to treatment allocation (all compounds at 100 ug/paw and antibodies were each 25 ug/paw) (FIG. 10).

rat TG neurons [7] = assay: activation of rat TG neurons by compound(s) released from heated skin, pretreatment with TRPV1 antagonist; format: cell-based; settings: I-RTX 200 nM pretreatment; superfusates from skin exposed to 48° C.
Experimental: To further characterize the TRPV1 specificity of these endogenous heat-generated compound(s), the effect of pretreatment with the TRPV1 antagonist iodo-resiniferatoxin (I-RTX) on the activation of rat TG neurons was evaluated. […] Moreover, application of these compound(s) triggered prompt increases in [Ca]i in CHO cells expressing TRPV1, but not in negative control CHO cells that expressed a GFP construct (FIGS. 1E-F). Next, initial superfusion experiments in isolated mouse skin were expanded by collecting supernatant after exposure to various temperatures and evaluating the release of endogenous TRPV1 compound(s).

TRPV4 = biological target: T1, TRPV4 (Homo sapiens, UniProt Q9HBA0); assay: [Ca2+]i in CHO cells expressing TRPV4; format: cell-based; settings: screening against other heat-sensitive TRP channels
T1 construct: expressed in transfected cells; host or cells: CHO cells
T1 sequence (Q9HBA0 whole entry, species assumed): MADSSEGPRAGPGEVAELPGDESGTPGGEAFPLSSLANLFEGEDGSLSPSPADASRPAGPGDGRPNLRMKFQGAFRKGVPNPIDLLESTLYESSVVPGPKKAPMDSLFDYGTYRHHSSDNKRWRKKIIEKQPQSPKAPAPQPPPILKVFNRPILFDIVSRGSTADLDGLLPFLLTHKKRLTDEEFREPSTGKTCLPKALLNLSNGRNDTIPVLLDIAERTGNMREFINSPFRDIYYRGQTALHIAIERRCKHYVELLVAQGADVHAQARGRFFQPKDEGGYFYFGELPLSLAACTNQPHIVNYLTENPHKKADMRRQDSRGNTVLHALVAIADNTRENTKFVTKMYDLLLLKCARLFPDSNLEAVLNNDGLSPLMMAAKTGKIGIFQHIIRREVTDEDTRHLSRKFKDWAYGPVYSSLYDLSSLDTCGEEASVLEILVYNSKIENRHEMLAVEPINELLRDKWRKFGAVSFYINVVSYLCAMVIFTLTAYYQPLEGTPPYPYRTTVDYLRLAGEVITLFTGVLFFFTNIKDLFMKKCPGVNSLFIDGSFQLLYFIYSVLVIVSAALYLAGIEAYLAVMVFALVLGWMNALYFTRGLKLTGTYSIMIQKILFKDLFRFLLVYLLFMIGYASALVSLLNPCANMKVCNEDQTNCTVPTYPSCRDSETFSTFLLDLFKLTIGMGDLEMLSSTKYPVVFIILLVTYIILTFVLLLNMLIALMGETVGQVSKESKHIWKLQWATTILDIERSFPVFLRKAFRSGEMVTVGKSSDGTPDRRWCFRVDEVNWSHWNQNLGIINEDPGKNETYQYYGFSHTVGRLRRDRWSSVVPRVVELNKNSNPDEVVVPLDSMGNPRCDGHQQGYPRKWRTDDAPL
Source text: as §3
FIG. 13 depicts the effect of lipids, extracted from burned human skin samples, and then applied to CHO cells that expressed either TRPV1, TRPV2, TRPV3, TRPV4 or TRPA1, using real time calcium imaging. As shown, the extracts of the burned human skin activated TRPV1, TRPV3, TRPV4 and TRPA1, but not TRPV2.

C#CCCCCCCCCCCCCCCCC(=O)O [ODYA, 17-Octadecynoic acid]
inhibition of the formation of linoleic acid metabolites (neuron-activating compounds) [1]: does not

CC(=O)N1CCN(c2ccc(OCC3COC(Cn4ccnc4)(c4ccc(Cl)cc4Cl)O3)cc2)CC1 (stereo not shown) [ketoconazole]
block of the ability of linoleic acid to activate pain neurons ([1]; Fura-2 ratio 340/380): completely blocked | inhibition of the formation of linoleic acid metabolites (neuron-activating compounds) [1]: inhibits the formation of linoleic acid metabolites

CCCCC/C=C\C=C\C(O)CCCCCCCC(=O)O (stereo not shown) [9-HODE, 9-hydroxyoctadecadienoic acid]
[Ca2+]i response evoked in TG neurons (TG neurons from WT mice): robust response | responding neurons / capsaicin-sensitive neurons (TG neurons from WT mice): 75/75 | tactile allodynia evoked by intrathecal application (rats [2]; 5 ug intrathecal): evoked tactile allodynia that was of similar magnitude and duration to that of capsaicin | magnitude of [Ca2+]i accumulation and its time course compared to WT neurons [3]: greatly reduced | responding neurons / tested neurons [3]: 3/66 | tested neurons with a slight response [3]: 4% | thermal allodynia after ipl injection (WT mice; blinded observers): significantly greater thermal allodynia | concentration at which effects on CGRP release are evident (cultured rat TG neurons): 10 nM | EC50 (cultured rat TG neurons; read-out: EC50 of increase in CGRP release): ~0.3 µM | thermal allodynia after ipl injection (TRPV1 KO mice; blinded observers): not in TRPV1 KO mice

CCCCC/C=C\CC1OC1CCCCCCCC(=O)O (stereo not shown) [9,10 EpOME, (12Z)-9,10-epoxyoctadecenoic acid]
[Ca2+]i response evoked in TG neurons (TG neurons from WT mice): evoked calcium accumulation only in capsaicin-sensitive neurons | responding neurons / capsaicin-sensitive neurons (TG neurons from WT mice): 58/58 | responding neurons / tested neurons [3]: 0/58 | thermal allodynia after ipl injection (WT mice; 50 μg/ipl): evoked thermal allodynia | thermal allodynia after ipl injection (TRPV1 KO mice; 50 μg/ipl): absent

COc1cc(CNC(=O)CCCC/C=C/C(C)C)ccc1O [capsaicin]
duration of tactile allodynia post injection (rats [2]; 5 ug intrathecal): 1 h | tactile allodynia evoked by intrathecal application (rats [2]; 5 ug intrathecal): evoked tactile allodynia

CC(C)(C)c1ccc(/C=C/C(=O)Nc2ccc3c(c2)OCCO3)cc1 [AMG 9810]
reversal of 9-HODE-evoked tactile allodynia (rats [2]; AMG 9810 50 ug, 9-HODE 5 ug intrathecal): completely reversible | reversal of capsaicin-evoked tactile allodynia (rats [2]; AMG 9810 50 ug, capsaicin 5 ug intrathecal): completely reversible | effect alone on mechanical withdrawal thresholds (rats [2]; antagonist alone, intrathecal): Neither the vehicle nor AMG 9810 alone had any effect

COc1ccc2c(c1)c(CC(=O)O)c(C)n2C(=O)c1ccc(Cl)cc1 [indomethacin]
reversal of heat-evoked iCGRP release by pretreatment (rat TG neurons [4]): not

CC(Cc1ccc(O)c(O)c1)C(C)Cc1ccc(O)c(O)c1 (stereo not shown) [NDGA, Nordihydroguaiaretic Acid]
reduction in Iheat (rat TG neurons [5]): ~50% | thermal antinociception (rats [6]): thermal antinociception far beyond that of the vehicle or morphine injected rats | reversal of heat-evoked iCGRP release by pretreatment (rat TG neurons [4]): partially reversed

C=C(C)[C@]12C[C@@H](C)[C@@]34O[C@](Cc5ccccc5)(O[C@@H]1[C@@H]3C=C(COC(=O)Cc1cc(I)c(O)c(OC)c1)C[C@]1(O)C(=O)C(C)=C[C@@H]41)O2 [I-RTX, iodo-resiniferatoxin]
block of activation of neurons by compound(s) released from heated skin (rat TG neurons [7]): completely blocked | reversal of heat-evoked iCGRP release by pretreatment (rat TG neurons [4]): partially reversed

CCCCCC=CCC(O)C(O)CCCCCCCC(=O)O (stereo not shown) [9,10-DiHOME, 9(10)-dihydroxy-octadec-12-enoic acid]
TRPV4 agonist activity (TRPV4): TRPV4 agonist

Clc1ccc(COC(Cn2ccnc2)c2ccc(Cl)cc2Cl)c(Cl)c1 (stereo not shown) [miconazole]
reduction in Iheat (rat TG neurons [5]): more than 75% | thermal antinociception (rats [6]): thermal antinociception far beyond that of the vehicle or morphine injected rats

CCCCC/C=C\C=C\C(=O)CCCCCCCC(=O)O [9-oxoODE, (10E,12Z)-9-oxooctadeca-10,12-dienoic acid]
[Ca2+]i levels after application (TG neurons from WT mice; concentration not given): triggered increased [Ca^2+]i levels | [Ca2+]i levels after application ([3]; concentration not given): not in neurons from TRPV1 KO mice
